Test [1] has as its system Giardia parasites. As to the kind of experiment: Video microscopy of parasite morphology and dynamics. The format is cell-based, Giardia lamblia. As to conditions: for Observed Parasite Morphology and Dynamics: Table I, video microscopy at 50, 15, 10, 5 and 1 μM. How it is done: A series of video microscopy studies were undertaken to examine the effect of the compounds on parasite morphology and dynamics. Short 1 minute videos of parasite behavior were recorded using DIC optics on a Zeiss AXIOPLAN microscope (Carl Zeiss Microimaging GmbH, Germany) using a Photometrics CCD camera (Photometrics, Inc.; Tucson, Ariz.). Recordings were made on at least three separate occasions at compound concentrations of 50 μM, 15 μM, 10 μM, 5 μM, and 1 μM to allow comparison to the dose-response curves in the attachment assay. Four broad categories of compound action were found (see Table I).

In test [2] the test system is Giardia parasite cultures. The experiment in a line: Reversibility of compound effect on Giardia viability and attachment. The format is cell-based, Giardia lamblia. As to conditions: 15 μM, 30 minutes-2 hours in PBS at 37° C., wash, 48 hours in growth media. On the procedure: Parasite cultures were treated for 30 minutes—2 hours with 15 μM of Compounds I-16, III-1, IV-1, V-1, VI-1, VII-1, and VIII-2A in PBS at 37° C. Parasites were then washed with warm PBS to remove compounds, and were placed in normal Giardia growth media for an additional 48 hours. […] All comparisons were made to cultures of untreated Giardia.

This note sets out measurements from patent US8779202B2, “Compositions and methods for the treatment of giardiasis” (Georgetown University, priority 2009, dated 2014).

For `O=C1C=C(N2CCN(c3ccccn3)CC2)C(=O)c2c(O)ccc(O)c21` [Compound IV-1], in test [1], the “effect on parasite morphology and activity” value is listed as “profoundly disrupted parasite morphology or simply destroyed the parasites”; the “Observed Parasite Morphology and Dynamics” value was “Parasites display a profoundly disrupted morphology”. Besides, in test [2], the “reversibility of effect on parasite attachment and viability” value (“reversibility of effect” below) is given as “irreversible”.

For `Oc1ccc2ccccc2c1CN(Cc1c(O)ccc2ccccc12)C1CCCCC1` [Compound I-16], in test [1], the “effect on parasite morphology and activity” value was “no observable effect on parasite morphology and activity, but did significantly reduce attachment”; the “Observed Parasite Morphology and Dynamics” value is “Parasites appear normal in morphology and activity,”. In addition, the “reversibility of effect” value in test [2] is reported as “largely reversible”.

Nogalamycin [Compound VII-1]: in test [1], the “effect on parasite morphology and activity” value was “no observable effect on Giardia morphology, but did cause flagellar paralysis”; the “Observed Parasite Morphology and Dynamics” value is listed as “Parasites display disrupted peripheral morphology,”. The “reversibility of effect” value in test [2] is listed as “largely reversible”.

Regarding `C[C@H]1CC[C@@H]2[C@@H](C)[C@H]3[C@H](C[C@H]4[C@@H]5CC=C6C[C@@H](O)CC[C@]6(C)[C@H]5CC[C@]34C)N2C1` [Compound VIII-2A], in test [1], the “effect on parasite morphology and activity” value is “no observable effect on parasite morphology and activity, but did significantly reduce attachment”; the “Observed Parasite Morphology and Dynamics” value was “Parasites appear normal in morphology and activity,”. Further, in test [2], the “reversibility of effect” value is recorded as “largely reversible”.

Consider `CC(Br)C(=O)c1ccc2cc(Br)c3ccccc3c2c1` (centres unmarked) [Compound III-1], for which, in test [1], the “effect on parasite morphology and activity” value was “profoundly disrupted parasite morphology or simply destroyed the parasites”; the “Observed Parasite Morphology and Dynamics” value is recorded as “Parasites display a profoundly disrupted morphology”. The “reversibility of effect” value in test [2] is listed as “irreversible”.

With `Cc1c(Cl)cc(C(C)(C)C)c(O)c1Cc1c(C)c(Cl)cc(C(C)(C)C)c1O` [Compound VI-1], in test [1], the “effect on parasite morphology and activity” value was “disrupted peripheral morphology, resulting either in loss of overall shape or localized membrane blebbing”; the “Observed Parasite Morphology and Dynamics” value is “Parasites display disrupted peripheral morphology,”. In test [2], the “reversibility of effect” value is given as “largely reversible”.

With `Nc1nc(SCc2ccccc2[N+](=O)[O-])c2[nH]cnc2n1` [Compound V-1], the “effect on parasite morphology and activity” value in test [1] is recorded as “disrupted peripheral morphology, resulting either in loss of overall shape or localized membrane blebbing”. For the same molecule, in test [2], the “reversibility of effect” value was “largely reversible”.
